Assay results: the NIST ThermoML archive (doi:10.1021/acs.jced.8b01120)
Numbers after ± are expanded uncertainties.

Test: xn = mol fraction of the nth substance listed
Settings: 100 kPa, Liquid; for speed of sound: Single path-length method; for mass density: Vibrating tube method

Compound: CCCCN(CCCC)CCCC [tributylamine] + COC(C)=O
- speed of sound (293.15 K, x1 = 0.0501): 1184.6 ± 4 m/s
- speed of sound (293.15 K, x1 = 0.1009): 1188.9 ± 4 m/s
- speed of sound (293.15 K, x1 = 0.2003): 1197.3 ± 4 m/s
- speed of sound (293.15 K, x1 = 0.2941): 1205.6 ± 4 m/s
- speed of sound (293.15 K, x1 = 0.4009): 1213.9 ± 4 m/s
- speed of sound (293.15 K, x1 = 0.5004): 1222.5 ± 4 m/s
- speed of sound (293.15 K, x1 = 0.6008): 1230.4 ± 4 m/s
- speed of sound (293.15 K, x1 = 0.7008): 1239 ± 4 m/s
- speed of sound (293.15 K, x1 = 0.8004): 1247.6 ± 4 m/s
- speed of sound (293.15 K, x1 = 0.9003): 1255.7 ± 4 m/s
- speed of sound (293.15 K, x1 = 1): 1264.2 ± 4 m/s
- mass density (293.15 K, x1 = 0.0501): 913.106 ± 2 kg/m3
- mass density (293.15 K, x1 = 0.1009): 893.96 ± 2 kg/m3
- mass density (293.15 K, x1 = 0.2003): 864.36 ± 2 kg/m3
- mass density (293.15 K, x1 = 0.2941): 843.967 ± 2 kg/m3
- mass density (293.15 K, x1 = 0.4009): 826.428 ± 2 kg/m3
- mass density (293.15 K, x1 = 0.5004): 813.696 ± 2 kg/m3
- mass density (293.15 K, x1 = 0.6008): 803.345 ± 2 kg/m3
- mass density (293.15 K, x1 = 0.7008): 794.987 ± 2 kg/m3
- mass density (293.15 K, x1 = 0.8004): 788.147 ± 2 kg/m3
- mass density (293.15 K, x1 = 0.9003): 782.234 ± 2 kg/m3
- mass density (293.15 K, x1 = 1): 777.01 ± 2 kg/m3
- speed of sound (298.15 K, x1 = 0.0501): 1160.4 ± 4 m/s
- speed of sound (298.15 K, x1 = 0.1009): 1165.2 ± 4 m/s
- speed of sound (298.15 K, x1 = 0.2003): 1174.1 ± 4 m/s
- speed of sound (298.15 K, x1 = 0.2941): 1182.6 ± 4 m/s
- speed of sound (298.15 K, x1 = 0.4009): 1191.9 ± 4 m/s
- speed of sound (298.15 K, x1 = 0.5004): 1200.4 ± 4 m/s
- speed of sound (298.15 K, x1 = 0.6008): 1209.5 ± 4 m/s
- speed of sound (298.15 K, x1 = 0.7008): 1218.5 ± 4 m/s
- speed of sound (298.15 K, x1 = 0.8004): 1227 ± 4 m/s
- speed of sound (298.15 K, x1 = 0.9003): 1236.1 ± 4 m/s
- speed of sound (298.15 K, x1 = 1): 1245.2 ± 4 m/s
- mass density (298.15 K, x1 = 0.0501): 906.572 ± 2 kg/m3
- mass density (298.15 K, x1 = 0.1009): 887.924 ± 2 kg/m3
- mass density (298.15 K, x1 = 0.2003): 858.987 ± 2 kg/m3
- mass density (298.15 K, x1 = 0.2941): 838.976 ± 2 kg/m3
- mass density (298.15 K, x1 = 0.4009): 821.765 ± 2 kg/m3
- mass density (298.15 K, x1 = 0.5004): 809.242 ± 2 kg/m3
- mass density (298.15 K, x1 = 0.6008): 799.107 ± 2 kg/m3
- mass density (298.15 K, x1 = 0.7008): 790.893 ± 2 kg/m3
- mass density (298.15 K, x1 = 0.8004): 784.162 ± 2 kg/m3
- mass density (298.15 K, x1 = 0.9003): 778.353 ± 2 kg/m3
- mass density (298.15 K, x1 = 1): 773.283 ± 2 kg/m3
- speed of sound (303.15 K, x1 = 0.0501): 1140 ± 4 m/s
- speed of sound (303.15 K, x1 = 0.1009): 1144.5 ± 4 m/s
- speed of sound (303.15 K, x1 = 0.2003): 1153.7 ± 4 m/s
- speed of sound (303.15 K, x1 = 0.2941): 1161 ± 4 m/s
- speed of sound (303.15 K, x1 = 0.4009): 1171.2 ± 4 m/s
- speed of sound (303.15 K, x1 = 0.5004): 1180.6 ± 4 m/s
- speed of sound (303.15 K, x1 = 0.6008): 1190.4 ± 4 m/s
- speed of sound (303.15 K, x1 = 0.7008): 1198.7 ± 4 m/s
- speed of sound (303.15 K, x1 = 0.8004): 1207.9 ± 4 m/s
- speed of sound (303.15 K, x1 = 0.9003): 1217 ± 4 m/s
- speed of sound (303.15 K, x1 = 1): 1226.2 ± 4 m/s
- mass density (303.15 K, x1 = 0.0501): 900.184 ± 2 kg/m3
- mass density (303.15 K, x1 = 0.1009): 881.943 ± 2 kg/m3
- mass density (303.15 K, x1 = 0.2003): 853.583 ± 2 kg/m3
- mass density (303.15 K, x1 = 0.2941): 833.982 ± 2 kg/m3
- mass density (303.15 K, x1 = 0.4009): 817.081 ± 2 kg/m3
- mass density (303.15 K, x1 = 0.5004): 804.881 ± 2 kg/m3
- mass density (303.15 K, x1 = 0.6008): 794.831 ± 2 kg/m3
- mass density (303.15 K, x1 = 0.7008): 786.764 ± 2 kg/m3
- mass density (303.15 K, x1 = 0.8004): 780.197 ± 2 kg/m3
- mass density (303.15 K, x1 = 0.9003): 774.459 ± 2 kg/m3
- mass density (303.15 K, x1 = 1): 769.55 ± 2 kg/m3
- speed of sound (308.15 K, x1 = 0.0501): 1113.4 ± 4 m/s
- speed of sound (308.15 K, x1 = 0.1009): 1118 ± 4 m/s
- speed of sound (308.15 K, x1 = 0.2003): 1128.1 ± 4 m/s
- speed of sound (308.15 K, x1 = 0.2941): 1137.7 ± 4 m/s
- speed of sound (308.15 K, x1 = 0.4009): 1148.1 ± 4 m/s
- speed of sound (308.15 K, x1 = 0.5004): 1158.4 ± 4 m/s
- speed of sound (308.15 K, x1 = 0.6008): 1167.9 ± 4 m/s
- speed of sound (308.15 K, x1 = 0.7008): 1177.6 ± 4 m/s
- speed of sound (308.15 K, x1 = 0.8004): 1187.8 ± 4 m/s
- speed of sound (308.15 K, x1 = 0.9003): 1197.3 ± 4 m/s
- speed of sound (308.15 K, x1 = 1): 1207.4 ± 4 m/s
- mass density (308.15 K, x1 = 0.0501): 893.938 ± 2 kg/m3
- mass density (308.15 K, x1 = 0.1009): 875.744 ± 2 kg/m3
- mass density (308.15 K, x1 = 0.2003): 848.346 ± 2 kg/m3
- mass density (308.15 K, x1 = 0.2941): 828.97 ± 2 kg/m3
- mass density (308.15 K, x1 = 0.4009): 812.409 ± 2 kg/m3
- mass density (308.15 K, x1 = 0.5004): 800.355 ± 2 kg/m3
- mass density (308.15 K, x1 = 0.6008): 790.504 ± 2 kg/m3
- mass density (308.15 K, x1 = 0.7008): 782.571 ± 2 kg/m3
- mass density (308.15 K, x1 = 0.8004): 776.154 ± 2 kg/m3
- mass density (308.15 K, x1 = 0.9003): 770.516 ± 2 kg/m3
- mass density (308.15 K, x1 = 1): 765.81 ± 2 kg/m3
- speed of sound (313.15 K, x1 = 0.0501): 1094.9 ± 4 m/s
- speed of sound (313.15 K, x1 = 0.1009): 1099.6 ± 4 m/s
- speed of sound (313.15 K, x1 = 0.2003): 1109.7 ± 4 m/s
- speed of sound (313.15 K, x1 = 0.2941): 1118.6 ± 4 m/s
- speed of sound (313.15 K, x1 = 0.4009): 1129.6 ± 4 m/s
- speed of sound (313.15 K, x1 = 0.5004): 1138.9 ± 4 m/s
- speed of sound (313.15 K, x1 = 0.6008): 1149.1 ± 4 m/s
- speed of sound (313.15 K, x1 = 0.7008): 1159 ± 4 m/s
- speed of sound (313.15 K, x1 = 0.8004): 1168.5 ± 4 m/s
- speed of sound (313.15 K, x1 = 0.9003): 1177.8 ± 4 m/s
- speed of sound (313.15 K, x1 = 1): 1188.8 ± 4 m/s
- mass density (313.15 K, x1 = 0.0501): 887.487 ± 2 kg/m3
- mass density (313.15 K, x1 = 0.1009): 869.547 ± 2 kg/m3
- mass density (313.15 K, x1 = 0.2003): 842.744 ± 2 kg/m3
- mass density (313.15 K, x1 = 0.2941): 823.819 ± 2 kg/m3
- mass density (313.15 K, x1 = 0.4009): 807.525 ± 2 kg/m3
- mass density (313.15 K, x1 = 0.5004): 795.747 ± 2 kg/m3
- mass density (313.15 K, x1 = 0.6008): 786.225 ± 2 kg/m3
- mass density (313.15 K, x1 = 0.7008): 778.432 ± 2 kg/m3
- mass density (313.15 K, x1 = 0.8004): 772.052 ± 2 kg/m3
- mass density (313.15 K, x1 = 0.9003): 766.597 ± 2 kg/m3
- mass density (313.15 K, x1 = 1): 762.06 ± 2 kg/m3
